Measurements published in patent US11191743B2, “Modulators of zinc activated cation channel” (Dignity Health, priority 2016, dated 2021).
Entries after “also recorded” stand apart in the source; their conditions may differ. Where two headings read alike, the source gives them in different places.

Assays:
ZACN [1] = molecular target: T1, ZACN (Homo sapiens, UniProt Q401N2); experiment: Two-electrode voltage-clamp, ZACN expressed in Xenopus laevis oocytes: agonist-induced current; type: cell-based; set-up: host or cells: Xenopus laevis oocytes injected with cRNA (pGEMHE vector, T7 transcript)
T1 sequence (Q401N2 26-412): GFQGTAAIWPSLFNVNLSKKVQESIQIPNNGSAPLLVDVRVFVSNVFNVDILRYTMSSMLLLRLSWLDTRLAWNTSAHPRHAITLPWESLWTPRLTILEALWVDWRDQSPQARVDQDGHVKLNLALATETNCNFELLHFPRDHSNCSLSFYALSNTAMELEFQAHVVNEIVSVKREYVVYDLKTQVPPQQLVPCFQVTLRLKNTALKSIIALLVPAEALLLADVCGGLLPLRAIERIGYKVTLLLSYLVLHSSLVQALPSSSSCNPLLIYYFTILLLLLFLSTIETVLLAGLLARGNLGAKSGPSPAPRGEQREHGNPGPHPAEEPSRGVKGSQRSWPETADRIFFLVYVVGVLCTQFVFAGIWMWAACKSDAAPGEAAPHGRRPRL
Source text: The cDNA encoding wild type, human ZACN was purchased from OpenBiosystems, and cloned into the pGEMHE vector in the T7 orientation. For cRNA synthesis, cDNA templates were PCR amplified using primers that cover the M13 forward and reverse regions and high fidelity Phusion DNA polymerase (New England Biolab, Ipswich, Mass., USA). PCR products were then purified and served as templates for cRNA synthesis. cRNAs were transcribed by T7 RNA polymerase (Promega, Madison, Wis., USA) using standard in vitro transcription protocols. After digestion of the DNA template by RNase-free DNase I, cRNAs were purified and resuspended in diethyl pyrocarbonate (DEPC)-treated water. cRNA integrity was examined on a 1% agarose gel, and cRNA concentration was determined by optical density measurements at 260 nm using an Eppendorf Biophotometer.
Oocytes were harvested from female Xenopus laevis (Xenopus I, Ann Arbor, Mich., USA), using the protocol “Xenopus Care and Use” approved by the Institutional Animal Care and Use Committee of the St. Joseph's Hospital and Medical Center. Stage VI oocytes were selected and incubated at 16° C. before injection. Micropipettes for injection were pulled from borosilicate glass (Drummond Scientific, Broomall, Pa., USA) on a Sutter P87 horizontal puller, and the tips were cut with forceps to ≈40 μm in diameter. cRNAs encoding ZACN was drawn up into the micropipette and injected into oocytes with a Nanoject micro-injection system (Drummond Scientific) in a total volume of ˜60 nl and total cRNA of ˜20 ng for each oocyte.
Two to 5 days after injection, oocytes expressing ZACN were placed in a home-made, small volume chamber and a 16-channel manifold, continuously perfused with oocyte Ringer's solution (OR2), which consisted of (in mM) 92.5 NaCl, 2.5 KCl, 1 CaCl2, 1 MgCl2 and 5 HEPES, pH 7.5. ValveLink 16 computer-controlled perfusion system was used to switch solutions between the OR2 and a test solution. The perfusion chamber was grounded through an agar salt bridge to avoid alterations in junction potential between the Ag/AgCl grounding electrode and solution when solution/drug changes occurred. Oocytes were voltage-clamped at −70 mV to measure agonist-induced currents using an AxoClamp 900A amplifier (Axon Instruments, Foster City, Calif., USA). The current signal was low-pass filtered at 20 Hz with the built-in 4-pole low-pass Bessel filter and digitized at 100 Hz with a Digidata1440a and pClamp 10 software (Molecular Devices).
For each oocyte, concentration-inhibition curves for drug-induced inhibition of zinc-activated current responses or concentration response curves for agonist-induced current of the ZACN were fit to the Hill equation using least squares methods (Prism 6.0, GraphPad Software, Inc., San Diego, Calif., USA) to derive IC50 or EC50 values (the concentration required for inducing a half maximal current), Hill coefficients (the slope factor), and maximum current levels in absolute terms. Current levels in each oocyte were normalized to the maximum current in the absence of the inhibitor, allowing normalized data to be averaged across multiple oocytes and to be fit again to the Hill equation. All data are presented as mean±SEM (standard error).

nACh (α4β2) receptor = molecular target: T2, nACh (α4β2) receptor (Homo sapiens, UniProt P17787+P43681); experiment: Application of NBT to other Cys-loop receptors; type: cell-based; details: listed as NBT
T2 construct: expressed in transfected cells
Source text: (§1) To date the only known agonist and antagonist for ZACN are Zn^2+ (agonist) and d-tubocurarine (antagonist).

[2] = molecular target: T3, serotonin (5HT3A) receptor (Homo sapiens, UniProt P46098); experiment: Application of NBT to other Cys-loop receptors; type: cell-based; details: listed as NBT
T3 construct: expressed in transfected cells
T3 sequence (P46098 24-478): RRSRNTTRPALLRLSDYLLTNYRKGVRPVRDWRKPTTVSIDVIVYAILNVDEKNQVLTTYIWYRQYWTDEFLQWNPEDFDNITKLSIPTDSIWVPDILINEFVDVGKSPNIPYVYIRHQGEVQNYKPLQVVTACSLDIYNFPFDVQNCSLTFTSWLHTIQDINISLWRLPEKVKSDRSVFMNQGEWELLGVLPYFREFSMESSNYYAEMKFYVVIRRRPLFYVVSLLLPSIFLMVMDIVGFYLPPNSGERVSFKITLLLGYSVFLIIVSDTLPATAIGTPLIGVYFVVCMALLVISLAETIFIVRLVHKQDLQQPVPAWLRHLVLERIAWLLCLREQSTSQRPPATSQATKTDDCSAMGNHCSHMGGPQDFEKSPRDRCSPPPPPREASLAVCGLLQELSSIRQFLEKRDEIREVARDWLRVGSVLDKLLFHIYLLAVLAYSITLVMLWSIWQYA
Source text: as §1

nACh (α7) receptor = molecular target: T4, nACh (α7) receptor (Homo sapiens, UniProt P36544); experiment: Application of NBT to other Cys-loop receptors; type: cell-based; details: listed as NBT
T4 construct: expressed in transfected cells
Source text: as §1

GABAC (ρ1) receptor = molecular target: T5, GABAC (ρ1) receptor (Homo sapiens, UniProt P24046); experiment: Application of NBT to other Cys-loop receptors; type: cell-based; details: listed as NBT
T5 construct: expressed in transfected cells
Source text: as §1

GABAA (α1β2γ2) receptor = molecular target: T6, GABAA (α1β2γ2) receptor (Homo sapiens, UniProt P14867+P18507+P47870); experiment: Application of NBT to other Cys-loop receptors; type: cell-based; details: listed as NBT
T6 construct: expressed in transfected cells
Source text: as §1

GABAA (α6β2δ) receptor = molecular target: T7, GABAA (α6β2δ) receptor (Homo sapiens, UniProt O14764+P47870+Q16445); experiment: Application of NBT to other Cys-loop receptors; type: cell-based; details: listed as NBT
T7 construct: expressed in transfected cells
Source text: as §1

glycine (α1) receptor = molecular target: T8, glycine (α1) receptor (Homo sapiens, UniProt P23415); experiment: Application of NBT to other Cys-loop receptors; type: cell-based; details: listed as NBT
T8 construct: expressed in transfected cells
T8 sequence (P23415 29-457): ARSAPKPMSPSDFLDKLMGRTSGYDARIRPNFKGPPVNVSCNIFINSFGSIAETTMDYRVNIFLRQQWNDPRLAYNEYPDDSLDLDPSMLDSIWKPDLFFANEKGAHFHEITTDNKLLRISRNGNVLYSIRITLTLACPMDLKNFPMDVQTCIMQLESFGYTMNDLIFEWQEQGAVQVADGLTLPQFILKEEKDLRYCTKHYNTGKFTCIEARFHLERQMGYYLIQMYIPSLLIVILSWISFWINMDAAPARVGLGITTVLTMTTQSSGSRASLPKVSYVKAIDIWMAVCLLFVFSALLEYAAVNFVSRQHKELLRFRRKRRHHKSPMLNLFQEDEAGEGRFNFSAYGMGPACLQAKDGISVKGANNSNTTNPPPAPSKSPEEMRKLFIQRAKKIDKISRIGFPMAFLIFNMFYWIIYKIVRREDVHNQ
Source text: as §1

ZACN [3] = molecular target: T1, ZACN; set-up: host or cells: HEK cells (exogenous expression); details: cited from earlier work
[4] = test system: iTreg-induced immunosuppression of T cell division; type: cell-based, human
Method: Live Treg cells (CD4+CD25^high) and conventional T cells (Tconv cells) (CD4+CD25−) are obtained by immunomagnetic cell isolation kit from human iTreg. Tconv cells are labeled with CFSE (10 uM for 10 min). After washing, the labeled cells are distributed into multiple wells (1×10^5/well) in a round bottom 96-well plate with various numbers (2-fold serial dilutions from 1×10^5/well) of Treg cells in each well. The mixed cells (Treg and Tconv with different ratios) are co-cultured for 72 h in the presence of anti-CD3/CD28-coated sulfate latex beads. The intensity of CFSE fluorescence that declines upon division of the labeled cells is measured by flow cytometry.
As disclosed throughout the disclosure, and specifically in FIG. 7, Zinc and/or d-tubocurarine has an influence on iTreg suppression function. CFSE Immunosuppression Assay uses a cell permeable reactive fluorescent dye, CFSE. After entering cells, CFSE interacts with intracellular proteins, and permanently stain the cell. The fluorescence intensity will decrease along with the T cell division.

iTreg cells = experiment: Calcium influx assay in Treg cells; type: cell-based, human
Method: Treg cells were loaded with calcium sensitive fluorescent dye X-Rhod-1 AM (cell permeant) (2 μM) for 60 min at room temperature. After wash, the cells were placed onto a glass-bottom petri dish with coated glass surface to allow cells attached to the glass surface. The fluorescence was detected using a microscope-based detection system with a different filter set (excitation filter ET560/40x, T585LPxr dichroic mirror, and ET630/75m emission filter). The fluorescence signal, first in the absence and then in the presence of a ZACN agonist, was low-pass filtered with a signal filter at 1 Hz and digitized with a Digidata1440 digitizer at 10 Hz.

T6 sequence (P47870 25-512): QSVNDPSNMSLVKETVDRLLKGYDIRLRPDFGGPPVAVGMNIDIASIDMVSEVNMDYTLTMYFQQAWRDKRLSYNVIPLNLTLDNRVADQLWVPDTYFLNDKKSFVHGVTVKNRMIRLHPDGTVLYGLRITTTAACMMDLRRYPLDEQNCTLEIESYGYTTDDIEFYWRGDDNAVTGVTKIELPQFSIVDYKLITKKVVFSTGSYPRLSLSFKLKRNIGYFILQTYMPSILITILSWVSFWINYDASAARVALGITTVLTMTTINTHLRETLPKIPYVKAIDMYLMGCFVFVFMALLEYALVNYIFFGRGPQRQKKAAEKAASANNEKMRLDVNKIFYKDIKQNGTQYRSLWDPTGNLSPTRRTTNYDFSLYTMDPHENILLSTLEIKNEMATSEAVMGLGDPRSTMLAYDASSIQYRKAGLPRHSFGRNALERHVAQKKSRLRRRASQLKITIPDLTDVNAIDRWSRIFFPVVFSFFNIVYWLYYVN
T6 sequence (P18507 40-475): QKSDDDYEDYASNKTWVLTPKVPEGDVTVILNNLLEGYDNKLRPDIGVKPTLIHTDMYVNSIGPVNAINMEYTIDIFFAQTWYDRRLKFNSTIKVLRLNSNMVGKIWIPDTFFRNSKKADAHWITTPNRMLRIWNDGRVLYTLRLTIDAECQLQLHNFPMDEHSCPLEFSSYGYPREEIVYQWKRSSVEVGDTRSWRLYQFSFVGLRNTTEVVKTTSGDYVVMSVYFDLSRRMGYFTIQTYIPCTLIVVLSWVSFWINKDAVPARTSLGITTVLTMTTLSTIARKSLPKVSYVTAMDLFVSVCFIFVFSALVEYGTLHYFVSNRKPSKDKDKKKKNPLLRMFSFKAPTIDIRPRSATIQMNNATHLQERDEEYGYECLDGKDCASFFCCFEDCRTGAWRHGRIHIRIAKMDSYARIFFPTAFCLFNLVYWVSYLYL
T6 sequence (P14867 28-456): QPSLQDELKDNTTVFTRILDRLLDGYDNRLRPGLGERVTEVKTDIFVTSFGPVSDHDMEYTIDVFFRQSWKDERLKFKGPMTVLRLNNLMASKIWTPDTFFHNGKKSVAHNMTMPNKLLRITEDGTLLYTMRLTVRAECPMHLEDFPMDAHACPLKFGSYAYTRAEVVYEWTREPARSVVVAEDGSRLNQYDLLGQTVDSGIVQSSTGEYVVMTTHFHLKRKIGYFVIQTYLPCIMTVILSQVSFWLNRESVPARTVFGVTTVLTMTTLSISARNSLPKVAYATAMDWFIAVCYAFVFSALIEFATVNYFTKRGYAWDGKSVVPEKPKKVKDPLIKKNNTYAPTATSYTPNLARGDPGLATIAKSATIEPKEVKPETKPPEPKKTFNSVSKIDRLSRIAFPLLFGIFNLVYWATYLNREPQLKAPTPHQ
T7 sequence (Q16445 20-453): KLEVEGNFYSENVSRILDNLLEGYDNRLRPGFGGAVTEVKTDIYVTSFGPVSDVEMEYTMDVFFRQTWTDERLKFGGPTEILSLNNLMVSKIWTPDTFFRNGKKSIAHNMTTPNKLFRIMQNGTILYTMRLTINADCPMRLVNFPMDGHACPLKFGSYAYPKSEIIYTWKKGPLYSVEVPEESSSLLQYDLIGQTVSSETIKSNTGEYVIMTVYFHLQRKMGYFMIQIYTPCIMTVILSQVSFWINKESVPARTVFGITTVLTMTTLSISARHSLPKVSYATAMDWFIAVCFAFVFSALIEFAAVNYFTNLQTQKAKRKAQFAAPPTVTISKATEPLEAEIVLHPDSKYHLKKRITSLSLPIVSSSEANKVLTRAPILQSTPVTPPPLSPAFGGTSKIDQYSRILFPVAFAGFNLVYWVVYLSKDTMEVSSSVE
T7 sequence (P47870 25-512 limits assumed): as the sequence (P47870 25-512) above
T7 sequence (O14764 17-452 limits assumed): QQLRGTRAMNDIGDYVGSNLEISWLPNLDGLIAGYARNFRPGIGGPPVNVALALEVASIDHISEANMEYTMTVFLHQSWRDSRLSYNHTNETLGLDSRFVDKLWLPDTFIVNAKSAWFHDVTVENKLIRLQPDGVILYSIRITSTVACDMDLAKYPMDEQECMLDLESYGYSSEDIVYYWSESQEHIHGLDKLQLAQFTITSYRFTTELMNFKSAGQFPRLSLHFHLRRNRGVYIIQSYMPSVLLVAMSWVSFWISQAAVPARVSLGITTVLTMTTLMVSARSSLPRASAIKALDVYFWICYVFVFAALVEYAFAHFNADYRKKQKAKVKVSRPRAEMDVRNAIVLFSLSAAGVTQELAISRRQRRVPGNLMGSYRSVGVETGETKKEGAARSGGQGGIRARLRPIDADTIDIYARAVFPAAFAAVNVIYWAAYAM
T5 sequence (P24046 22-479): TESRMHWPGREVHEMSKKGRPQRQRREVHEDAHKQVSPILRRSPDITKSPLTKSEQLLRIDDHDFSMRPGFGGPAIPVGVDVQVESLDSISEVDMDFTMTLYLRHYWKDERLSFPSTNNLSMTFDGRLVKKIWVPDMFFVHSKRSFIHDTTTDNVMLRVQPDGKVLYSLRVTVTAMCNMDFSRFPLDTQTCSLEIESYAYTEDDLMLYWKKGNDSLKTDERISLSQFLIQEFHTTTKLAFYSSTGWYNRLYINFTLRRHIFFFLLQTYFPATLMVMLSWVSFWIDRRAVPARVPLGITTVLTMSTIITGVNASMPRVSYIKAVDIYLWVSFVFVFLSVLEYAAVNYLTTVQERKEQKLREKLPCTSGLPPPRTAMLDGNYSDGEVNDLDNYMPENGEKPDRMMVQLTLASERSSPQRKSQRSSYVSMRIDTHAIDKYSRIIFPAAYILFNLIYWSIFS
T4 sequence (P36544 23-502): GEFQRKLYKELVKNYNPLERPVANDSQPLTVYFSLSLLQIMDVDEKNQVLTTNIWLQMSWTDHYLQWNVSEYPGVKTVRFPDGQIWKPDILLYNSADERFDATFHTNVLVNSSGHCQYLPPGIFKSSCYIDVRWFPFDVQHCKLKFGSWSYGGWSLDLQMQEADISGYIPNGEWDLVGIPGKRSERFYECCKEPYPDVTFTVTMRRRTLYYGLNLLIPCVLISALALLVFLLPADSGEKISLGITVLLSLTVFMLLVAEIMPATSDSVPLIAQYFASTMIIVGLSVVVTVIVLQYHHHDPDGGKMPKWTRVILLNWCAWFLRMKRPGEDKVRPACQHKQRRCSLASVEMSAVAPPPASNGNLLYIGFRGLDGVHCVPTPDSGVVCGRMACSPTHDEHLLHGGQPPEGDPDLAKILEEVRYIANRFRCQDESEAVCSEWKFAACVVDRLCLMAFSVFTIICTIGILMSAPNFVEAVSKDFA
T2 sequence (P43681 29-627): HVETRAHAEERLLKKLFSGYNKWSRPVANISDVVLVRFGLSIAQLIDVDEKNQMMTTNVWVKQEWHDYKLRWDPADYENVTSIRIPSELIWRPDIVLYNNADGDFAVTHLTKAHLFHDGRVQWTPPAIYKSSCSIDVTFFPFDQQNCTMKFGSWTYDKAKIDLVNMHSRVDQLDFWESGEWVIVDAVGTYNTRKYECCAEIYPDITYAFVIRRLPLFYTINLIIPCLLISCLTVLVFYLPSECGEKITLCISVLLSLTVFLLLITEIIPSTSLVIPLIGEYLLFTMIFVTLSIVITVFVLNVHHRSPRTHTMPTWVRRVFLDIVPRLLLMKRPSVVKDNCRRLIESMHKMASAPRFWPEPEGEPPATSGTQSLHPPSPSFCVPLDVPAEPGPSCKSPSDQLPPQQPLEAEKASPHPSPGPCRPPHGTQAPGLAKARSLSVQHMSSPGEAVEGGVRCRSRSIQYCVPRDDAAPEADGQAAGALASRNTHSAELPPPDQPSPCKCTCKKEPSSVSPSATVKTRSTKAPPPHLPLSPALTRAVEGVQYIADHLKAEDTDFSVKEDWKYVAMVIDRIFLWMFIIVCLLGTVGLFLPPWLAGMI
T2 sequence (P17787 26-502): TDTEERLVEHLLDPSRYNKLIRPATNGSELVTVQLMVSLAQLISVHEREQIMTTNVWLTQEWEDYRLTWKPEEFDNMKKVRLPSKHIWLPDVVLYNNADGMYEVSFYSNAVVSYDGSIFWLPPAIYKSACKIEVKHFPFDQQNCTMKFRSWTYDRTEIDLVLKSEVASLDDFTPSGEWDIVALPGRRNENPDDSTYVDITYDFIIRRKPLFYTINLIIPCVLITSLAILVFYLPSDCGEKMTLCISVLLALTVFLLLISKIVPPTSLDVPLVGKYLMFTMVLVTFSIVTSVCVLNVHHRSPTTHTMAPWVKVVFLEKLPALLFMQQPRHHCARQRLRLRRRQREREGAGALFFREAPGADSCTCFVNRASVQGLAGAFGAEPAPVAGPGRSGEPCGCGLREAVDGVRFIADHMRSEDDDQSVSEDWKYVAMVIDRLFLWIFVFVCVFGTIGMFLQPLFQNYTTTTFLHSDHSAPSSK

COc1cc(-c2ccc(-n3nc(-c4ccccc4)n[n+]3-c3ccc([N+](=O)[O-])cc3)c(OC)c2)ccc1-n1nc(-c2ccccc2)n[n+]1-c1ccc([N+](=O)[O-])cc1 [Nitro Blue Tetrazolium]
ZACN recovery from activation, compared with ZnCl2 (ZACN [1]): much slower | agonist activity on human ZACN (words) (ZACN [1]): selective agonist | response to NBT application (nACh (α4β2) receptor): elicited no response; also recorded: no agonist or antagonist effect | response to NBT application [2]: elicited no response; also recorded: no agonist or antagonist effect | response to NBT application (nACh (α7) receptor): elicited no response; also recorded: no agonist or antagonist effect | response to NBT application (GABAC (ρ1) receptor): elicited no response; also recorded: no agonist or antagonist effect | response to NBT application (GABAA (α1β2γ2) receptor): elicited no response; also recorded: no agonist or antagonist effect | response to NBT application (GABAA (α6β2δ) receptor): elicited no response; also recorded: no agonist or antagonist effect | response to NBT application (glycine (α1) receptor): elicited no response; also recorded: no agonist or antagonist effect

[Cl-].[Cl-].[Zn+2] [ZnCl2, Zinc chloride]
ZnCl2 EC50 in Xenopus oocytes relative to HEK cells (fold greater) (ZACN [1]): approximately 3 fold | approximate EC80 Zn2+ concentration for this receptor (ZACN [1]): ~2000 µM | EC50 (ZACN [1]; ZACN expressed in X. laevis oocytes, read-out: EC50 in activating ZACN): 1640 ± 56 µM | EC50 (ZACN [1]; ZACN expressed in X. laevis oocytes, read-out: EC50 on ZACN): 1660 µM | EC50 (ZACN [1]; read-out: approximate EC50 Zn2+ concentration for this receptor): ~500 µM | EC50 (ZACN [3]; HEK cells, read-out: ZnCl2 EC50 for ZACN expressed in HEK cells): 540 µM | activation of ZACN in HEK cells (ZACN [3]): activated this receptor dose-dependently | effect on T cell viability ([4]; high concentration, 1 mM): killed T cells | intracellular calcium in iTreg cells (iTreg cells): intracellular calcium increase

COc1cc2c3cc1Oc1cc(ccc1O)C[C@@H]1c4c(cc(OC)c(O)c4Oc4ccc(cc4)C[C@@H]3N(C)CC2)CC[N+]1(C)C [d-tubocurarine]
effect on spontaneous activity of ZACN in HEK cells (ZACN [3]): blocked | influence on iTreg suppression function [4]: inhibited the iTreg-induced immunosuppression of T cell division
